According to US20260364072A1, “METHODS FOR PROMOTING EXPANSION OF HUMAN CD34+ CELLS IN VIVO AND FOR PROMOTING NEURAL REGENERATION” (THE REGENTS OF THE UNIVERSITY OF CALIFORNIA, priority 2023, published 2026):

How the values were obtained:
[1] = test system: AZIN1 transcript; assay: AZIN1 transcript editing by RESSqPCR in TF1a cells; format: cell-based, human; details: shADAR1-transduced cells treated with Rebecsinib compared with vehicle controls
Text: For lentivirus-mediated knockdown of human ADAR1 in ADAR1 activation and RNA editing biomarker studies of the nanoluc-GFP reporter and endogenous transcripts, human leukemia cells were stably transduced with the lentiviral shRNA vectors targeting ADAR1 (shADAR1) or scrambled control (shCtrl) to ablate endogenous ADAR1 expression. The shRNA plasmids targeting ADAR1 (shADAR1) as well as the scrambled control (shCtrl) were purchased from VectorBuilder (Chicago, IL) (shCtrl: […] (SEQ ID NO:3) and shADAR1: […]) (SEQ ID NO:4). […] Viral titers were assessed by qRT-PCR and transduction efficiency was tested in 293T cells. […]
For quantitative analysis of splice isoform expression, RNA editing rates, and whole gene expression by qRT-PCR, cells or tissue fragments were harvested in RNA lysis buffer and total RNA was extracted using RNeasy mini or micro extraction kits (QIAGEN, Germantown, MD) following the manufacturer's protocol including a DNase incubation step to digest any trace genomic DNA present. Levels of ADAR1 variants and LSC-specific transcripts were quantified by qRT-PCR as previously described.^14 RNA-editing site-specific qRT-PCR (RESSqPCR) was performed for variants in AZIN1 transcripts.^53 Additional species-specific primers were also designed to quantify intron retention rates in cells treated with Rebecsinib as a biomarker of response to RNA splicing modulation. […]

[2] = test system: phospho-STAT3; assay: phospho-STAT3 intracellular flow cytometry; format: cell-based, human
Method: Flow cytometry for stem and progenitor cell surface antibody staining was performed as previously described.^14 For phospho-flow, a subset of samples was fixed and permeabilized, then blocked and stained with APC-conjugated ADAR1p150 antibody (cat ab269444, 1:25) and pSTAT3 APC (cat 17-9033-42, 1:10) (Table S2). Fractions were analyzed with the BD LSR FORTESSA™ (Sanford Consortium for Regenerative Medicine Stem Cell Core) and FLOWJO™ software (TreeStar, Ashland, OR).

[3] = test system: sAML LSC; assay: Humanized sAML LSC mouse model; format: in vivo, human cells in Rag2-/-γc-/- mice; details: twice weekly dosing; splicing factor mutated and unmutated samples
Text: In humanized mouse models, sAML cells (CD34^+) from two unique […] patient samples that were splicing factor mutated or unmutated were utilized, including sAML50261 and sAML2008-5.^14 For in vivo efficacy and therapeutic index studies, sAML CD34^+ cells, or normal human cord blood-derived or aged bone marrow-derived HSPCs (CD34^+), were transplanted (50,000-200,000 cells per mouse) intrahepatically into neonatal Rag2^−/−γc^−/− mice, or intravenously into adult NSG-SGM3 mice (Jackson Laboratories, Bar Harbor, ME). A subset of experiments was performed with normal aged bone marrow cells that were transduced with the lentiviral ADAR1 nanoluc-GFP reporter vector prior to transplant. […] For animals that received transplants of cells transduced with the lentiviral ADAR1 nanoluc-GFP reporter, mice were imaged 15 weeks after transplant on the IVIS 200, as previously described.^79 Following treatment with Rebecsinib (five intravenous doses total over a two-week period), hematopoietic tissues (peripheral blood, bone marrow, spleens) were collected and analyzed by flow cytometry as previously described.^14 For splice isoform-specific qRT-PCR or RNA-seq analyses on cells from in vivo studies, human CD34^+ LSC from bone marrows and spleens of engrafted mice were isolated by magnetic bead separation (Miltenyi Biotec).

[4] = test system: normal aged HSPC; assay: ADAR1 nanoluc-GFP aged normal bone marrow CD34+ engrafted mice; format: in vivo, human cells in immunocompromised mice; details: 10 mg/kg
Text: To further test the utility of the ADAR1 nanoluc-GFP reporter for in vivo detection of endogenous ADAR1 activity, primary human aged normal bone marrow CD34^+ cells were transduced with the reporter vector and transplanted into immunocompromised mice. ADAR1 activity was detected by live animal bioluminescence imaging and corresponded with human cell engraftment detection by flow cytometry.
In humanized mouse models, sAML cells (CD34^+) from two unique […] patient samples that were splicing factor mutated or unmutated were utilized, including sAML50261 and sAML2008-5.^14 For in vivo efficacy and therapeutic index studies, sAML CD34^+ cells, or normal human cord blood-derived or aged bone marrow-derived HSPCs (CD34^+), were transplanted (50,000-200,000 cells per mouse) intrahepatically into neonatal Rag2^−/−γc^−/− mice, or intravenously into adult NSG-SGM3 mice (Jackson Laboratories, Bar Harbor, ME). A subset of experiments was performed with normal aged bone marrow cells that were transduced with the lentiviral ADAR1 nanoluc-GFP reporter vector prior to transplant. For transplantation into adult mice, animals were irradiated with ^137Cs at a dose of 150 cGy 24 hr before IV transplantation. […]

[5] = Multi-species (rat, rabbit, NHP) pre-IND studies; format: in vivo
Method: […] Rat and rabbit studies included toxicology analyses, quantification of plasma levels of Rebecsinib, and necropsies to evaluate organ integrity after treatment. For NHP studies, health and ophthalmological evaluations were performed before and after dosing with Rebecsinib, and blood samples were collected for quantification of plasma levels of Rebecsinib and biomarker studies in PBMCs from treated and control animals. All monkeys were returned to the animal colony after the end of the observation period. Toxicokinetic values including mean plasma concentrations and t1/2 values were calculated according to CRO-approved protocols (Charles River and BASi).

[6] = test system: MCL1-L, BCL-XL, BCL-2, SF3B1, SF3B3 transcripts; assay: Splicing effects on LSC-enriched anti-apoptotic transcripts and splicing factor gene products; format: cell-based, human
Method: For quantitative analysis of splice isoform expression, RNA editing rates, and whole gene expression by qRT-PCR, cells or tissue fragments were harvested in RNA lysis buffer and total RNA was extracted using RNeasy mini or micro extraction kits (QIAGEN, Germantown, MD) following the manufacturer's protocol including a DNase incubation step to digest any trace genomic DNA present. Levels of ADAR1 variants and LSC-specific transcripts were quantified by qRT-PCR as previously described.^14 RNA-editing site-specific qRT-PCR (RESSqPCR) was performed for variants in AZIN1 transcripts.^53 Additional species-specific primers were also designed to quantify intron retention rates in cells treated with Rebecsinib as a biomarker of response to RNA splicing modulation. Specifically, for the two-step SYBR-green based assays, as previously described,^7,14,53 100-1000 ng of RNA were subjected to cDNA synthesis using the SUPERSCRIPT III™ (ThermoFisher Scientific) kit followed by qRT-PCR using SYBR GreenER (ThermoFisher Scientific) master mix according to the manufacturer's recommended procedures. qRT-PCR was performed using SYBR GREENER SUPER MIX™ (Life Technologies) on BioRad iQ5™, C1000 TOUCH™, or BioRad CFX384™ instruments. […] Relative mRNA expression values were calculated using the 2^−ΔCT method, with normalization to untreated or vehicle-treated controls.^54

Structure (SMILES): CC[C@H](OC)[C@@H](C)[C@H]1O[C@@H]1[C@@H](O)[C@H](C)/C=C/C=C(\C)[C@H]1OC(=O)C[C@H](O)CC[C@@](C)(O)[C@@H](OC(C)=O)/C=C/[C@@H]1C [Rebecsinib]
- AZIN1 transcript editing activity (RESSqPCR) [1]: low levels of AZIN1 transcript editing activity
- phospho-STAT3 expression [2]: reduced phospho-STAT3 expression
- sAML LSC burden in bone marrow, peripheral blood, and spleen [3]: significant reduction in sAML LSC burden
- human HSPC engraftment and mature T or B cell maturation [4]: no loss of human HSPC engraftment or mature T or B cell maturation
- frequency of normal CD34+ cells in bone marrow ([4]; in comparison to cord blood transplantation models): appeared to be increased
- systemic toxicity [5]: no evidence of systemic toxicity
- bioavailability and stability ([5]; clinically tractable formulation): favorable bioavailability and stability
- tolerability in rat, rabbit, NHP ([5]; pre-IND studies): well tolerated
- splicing modulation ([5]; rat, rabbit, NHP): dose-dependent increases in splicing modulation
- LSC-enriched anti-apoptotic transcripts, including MCL1-L, BCL-XL, and BCL-2 [6]: reduces
- intron retention in splicing factor gene products, such as SF3B1 and SF3B3 [6]: induces marked intron retention
